Test results from paper PMC3476531, “Synergy of Peptide and Sugar in O-GlcNAcase Substrate Recognition” (Chemistry & Biology, 2012).

What was measured:
hOGA = target: T1, hOGA (Homo sapiens, UniProt O60502); assay: hOGA glycopeptide hydrolysis, substrate competition assay with 4MU-GlcNAc reporter; format: biochemical; set-up: GST (N); made in house; host or cells: transiently transfected HEK293 cells; conditions: wild-type full-length hOGA; competition with 4MU-GlcNAc reporter substrate; 37°C, 50 mM citrate-phosphate buffer pH 7.4, 0.1 mg/ml BSA; triplicate; ± error of curve-fit; read-out: Michaelis constant (KM) of glycopeptide substrate for hOGA
T1 sequence (O60502 1-916): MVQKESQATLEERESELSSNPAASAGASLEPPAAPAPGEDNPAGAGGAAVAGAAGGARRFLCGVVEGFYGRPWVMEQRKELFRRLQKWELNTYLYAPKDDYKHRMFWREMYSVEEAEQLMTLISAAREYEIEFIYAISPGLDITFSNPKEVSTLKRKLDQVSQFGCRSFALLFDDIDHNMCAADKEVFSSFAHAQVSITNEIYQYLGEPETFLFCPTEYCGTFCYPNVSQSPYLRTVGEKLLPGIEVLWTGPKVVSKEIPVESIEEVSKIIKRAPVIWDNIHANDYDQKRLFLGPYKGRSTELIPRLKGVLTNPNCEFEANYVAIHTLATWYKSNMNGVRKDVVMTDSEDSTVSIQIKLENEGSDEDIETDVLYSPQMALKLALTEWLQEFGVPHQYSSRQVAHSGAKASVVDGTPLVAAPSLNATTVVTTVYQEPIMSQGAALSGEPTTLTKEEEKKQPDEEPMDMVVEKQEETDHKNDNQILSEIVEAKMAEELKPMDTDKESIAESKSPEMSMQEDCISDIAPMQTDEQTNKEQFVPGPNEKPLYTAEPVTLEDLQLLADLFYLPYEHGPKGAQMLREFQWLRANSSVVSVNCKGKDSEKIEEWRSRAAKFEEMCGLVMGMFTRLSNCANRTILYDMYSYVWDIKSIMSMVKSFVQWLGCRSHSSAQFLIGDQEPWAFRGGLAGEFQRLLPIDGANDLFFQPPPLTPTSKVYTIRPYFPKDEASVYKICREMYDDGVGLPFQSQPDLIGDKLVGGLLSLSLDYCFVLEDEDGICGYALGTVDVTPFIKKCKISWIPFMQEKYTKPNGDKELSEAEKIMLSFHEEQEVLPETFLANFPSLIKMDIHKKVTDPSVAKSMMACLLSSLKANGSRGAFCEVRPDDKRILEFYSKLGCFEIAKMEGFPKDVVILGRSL
Description: Protein was expressed in transiently transfected HEK293 cells and purified via glutathione sepharose affinity chromatography.
hOGA and CpOGA glycopeptide hydrolysis assays were carried out as described previously ([Dorfmueller et al., 2006; Schimpl et al., 2010]) using multisubstrate enzyme kinetics with the fluorigenic pseudosubstrate 4MU-GlcNAc as the reporter substrate. […] Reactions were performed at 37°C in 50 mM citrate-phosphate buffer (pH 7.4) and 0.1 mg/ml BSA. Experiments were performed in triplicate, and data were analyzed and plotted with GraphPad PRISM.

[1] = target: T2, human O-GlcNAcase (hOGA), wild-type (human) (UniProt O60502)
T2 sequence: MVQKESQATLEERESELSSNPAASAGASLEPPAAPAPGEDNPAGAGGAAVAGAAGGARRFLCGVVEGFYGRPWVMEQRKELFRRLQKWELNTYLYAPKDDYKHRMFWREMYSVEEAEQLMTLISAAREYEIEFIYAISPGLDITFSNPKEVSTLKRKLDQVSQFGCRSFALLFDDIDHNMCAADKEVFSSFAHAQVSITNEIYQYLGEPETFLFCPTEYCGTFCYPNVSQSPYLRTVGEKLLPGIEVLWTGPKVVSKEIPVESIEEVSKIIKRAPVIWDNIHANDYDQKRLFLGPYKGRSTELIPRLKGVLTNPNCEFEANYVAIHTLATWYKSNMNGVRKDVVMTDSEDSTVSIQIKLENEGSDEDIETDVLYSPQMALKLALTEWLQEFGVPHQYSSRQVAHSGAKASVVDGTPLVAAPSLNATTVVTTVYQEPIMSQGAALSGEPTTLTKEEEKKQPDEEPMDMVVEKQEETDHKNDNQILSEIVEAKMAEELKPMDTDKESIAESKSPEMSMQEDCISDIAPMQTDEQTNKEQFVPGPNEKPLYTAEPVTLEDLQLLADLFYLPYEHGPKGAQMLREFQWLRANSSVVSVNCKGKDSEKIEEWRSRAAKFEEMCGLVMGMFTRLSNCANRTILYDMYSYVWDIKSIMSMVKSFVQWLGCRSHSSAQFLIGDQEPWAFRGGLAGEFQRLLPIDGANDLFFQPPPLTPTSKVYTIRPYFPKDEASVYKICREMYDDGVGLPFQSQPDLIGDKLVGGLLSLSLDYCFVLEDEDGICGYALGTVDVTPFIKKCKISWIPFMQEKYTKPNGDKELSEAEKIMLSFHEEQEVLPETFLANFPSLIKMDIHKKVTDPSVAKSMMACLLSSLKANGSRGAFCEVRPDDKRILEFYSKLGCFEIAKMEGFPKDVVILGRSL

Row | Substance | Km (hOGA) [µM] | KM (hOGA) of the glycopeptide substrate (substrate competition assay with 4MU-GlcNAc as reporter substrate) [1] [µM]
1 | QLVVS(O-GlcNAc)VPPPG [altered p53 glycopeptide with intramolecular hydrogen bond disrupted] | 3700 | –
2 | QLVVS(O-GlcNAc)TPPPG [altered p53 glycopeptide with intramolecular hydrogen bond disrupted] | 1800 | –
3 | p53 peptide (Ser149) QLVDS(O-GlcNAc)TPPPG, original sequence of Table 2 | – | 21
4 | VPHS(O-GlcNAc)SAQ | 810 ± 140 | –
